# pEC50: −log10 of the molar value. Like-named read-outs stand apart in the source and are kept apart here.
# Assays:
# HeLa cells [1] = assay: IL-8 ELISA on supernatants of treated HeLa cells; format: cell-based, human; conditions: for Inhibition of IL-8 response to S1P by antioxidants: NDGA 10 or 40 μM, NAC 30 mM
# Procedure: Procedure #1 For HeLa Cells
# Cells: HeLa (adenocarcinoma, human)
# Media: DMEM/F12+10%FBS adherent
# 1) Cells were seeded at 0.2×10^6 cells/well in 6-well plates.
# 2) 1.5 ml 0.5% FBS media was added to each well.
# 1) Made up all required solutions in 0.5% FBS media (control). Handling of […] for use in NF-κB experiments requires that sonication, commonly used to resuspend LPA, not be done; NF-κB may be activated by lipid peroxides created through vigorous frothing.
# 3) 1.5 ml appropriate treatments were added to each well.
# 5) After the specified time cell supernatants were collected into 1.5 ml eppendorf tubes, spun down at 14000 rpm for 5 minutes and stored at −20° C. for later ELISA determination.
# D. Detection of Interleukin-8 (IL-8) using an IL-8 ELISA (Enzyme-Linked InimunoSorbent Assay).
# 1) The Quantikine Human IL-8 ImmunoAssay Kit was obtained from R&D Systems (Cat. D8050).
# 4) The assay procedure was followed as recommended in the kit for cell culture supernatant samples.
# 5) ELISA was performed on 50 μl samples of culture supernatant and duplicate samples were measured for each well. Each treatment was performed on triplicate wells.
# 6) Plates were read on UVmax kinetic microplate reader (Molecular Devices), set to 450 nm and correction set to 575 nm, using Wsoftmax software version 2.34.
# Procedure #2 For HeLa Cells
# 1) Cells were seeded at 2.5×10^4 cells/well in 24-well plates.
# 2) 0.5 ml 0.5% FBS media was added to all wells not requiring PTX pre-treatment.
# 3) For wells requiring PTX; 0.5 ml 0.5% FBS media containing 50 ng/ml PTX (1 volume PTX (RBI Cat. P140): 1 volume DTT, incubate 37° C. for 30 minutes then dilute to 50 ng/ml) was added.
# Follow Procedure #2 For HeLa Cells with the following exceptions:
# Concentrations for LPC, LPE, LPG, LPS, sphingosine and SM used were 10, 50, 100, 1000, and 5000 nM. Concentrations for LPI, lyso-PAF and lysosulfatide used were 0.3 and 3 μM.
# 2) A 30 minute pre-treatment at 37° C./5%CO2 of 0.5 ml of suramin was done to all wells except control, any PTX and ET-18-OCH3 wells before step 3 of section C.
# rat edg4 = rat edg4 (Rattus norvegicus, UniProt P47752); assay: NF-κB-tk-p4Luc luciferase reporter in 293-EBNA cells, rat EDG-4; format: cell-based; set-up: expressed in transfected cells; host or cells: 293-EBNA; conditions: pC3-redg4, Assay #1, 24 hrs
# rat edg4, sequence (P47752 whole entry): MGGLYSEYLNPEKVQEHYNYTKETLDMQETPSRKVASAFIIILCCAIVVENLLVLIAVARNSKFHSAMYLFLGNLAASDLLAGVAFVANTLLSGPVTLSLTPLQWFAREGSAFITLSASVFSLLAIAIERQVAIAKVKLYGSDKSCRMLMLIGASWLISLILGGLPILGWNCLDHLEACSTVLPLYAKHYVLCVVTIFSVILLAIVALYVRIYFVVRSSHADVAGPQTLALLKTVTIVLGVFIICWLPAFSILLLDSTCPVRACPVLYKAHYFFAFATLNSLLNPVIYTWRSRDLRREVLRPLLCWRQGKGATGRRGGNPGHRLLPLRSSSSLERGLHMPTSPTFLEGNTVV
# Procedure: Monolayer Transient Transfection Protocol for 293-EBNA
# 1) 150 mm plates of 293-EBNA obtained from Invitrogen (Cat. R620-07) with a confluency of ˜80% were used for transfection.
# 2) 6.6 μg NF-κB-tk-p4Luc reporter DNA and 6.6 μg of pC3-redg4 (expressing rat EDG-4), or pcDNA3 DNA was diluted in 500 μl OPTI-MEM (Gibco; Cat. 31985-062)
# 3) 96.8 μl Lipofectamine (Gibco; Cat. 18324-020) was diluted in 500 μl of OPTI-MEM.
# 6) 6 ml OPTI-MEM was added to each transfection tube and this was added to a plate of 293-EBNA cells. The plates were left for 4 hrs at 37° C. in a 5% CO2 incubator.
# 2) 0.02×10^6 cells were plated per well of a 96-well Blackview plate coated with polyD-lysine. No cells were plated in the outside wells of the 96well plate. Two 96-well plates were seeded for each transfection.
# 1) Cells were washed with PBS and 140 μl serum-free media (SFM) added to each well. Plates were incubated in 37° C. incubator for 6 hrs.
# 2) After 6 hrs, media was removed and cells treated with compounds diluted in 0.5% FBS media (140 μl added to each well).
# 3) Cells were treated for 24 hrs.
# 1) Luclite kit (Packard; Cat. 6016911) was used for luciferase assay. All reagents were brought to room temperature before use.
# 3) 50 μl 0.5M HEPES pH 7.8 buffer (1 mM MgCl2, 1 mM CaCl2) was added to all wells of 96-well plate. Black adhesive backing (Polyfitronics) was aligned to the bottom of the viewplate.
# 4) Luclite substrate was made up by adding 10 ml substrate diluent to 1 vial lyophilized substrate. Reconstituted substrate was kept under a dark container. 50 μl substrate was added to each well.
# 7) After incubation, plates were counted in a 12-detector Packard Top Count on a program without dark delay.
# Transient Transfection Protocol for 293-EBNA
# The above protocol for assay 1 was followed except for the following changes:
# 2) 3 μg NFκB-tk-p4Luc reporter DNA and 3 μg pC3-hedg1, pC3-hedg3, pC3-redg4, pC3-hedg5 or pcDNA3 DNA was diluted in 240 μl OPTI-MEM (Gibco; Cat. 31985-062)
# 1) 0.01×10^6 cells were plated per well of a 96-well Blackview plate coated with polyD-lysine. No cells were plated in the outside wells of the 96-well plate.
# [2] = test system: Human Umbilical Vein Endothelial Cells (HUVEC); assay: IL-8 ELISA on primary cultured HUVEC treated with lysolipids; format: cell-based; conditions: 6 hr treatment
# Procedure: Plating, Pretreatment and Treatment of HUVEC
# Procedures were followed as detailed above in “Procedure #1 for HeLa Cells” with the following exceptions:
# Cells were plated at 20,000 cells/well into 24-well plates. The next day, cells were serum-starved overnight in EBM medium (Clonetics) with 0.5% FBS, and then treated in EBM without FBS for 6 hr with the following lysolipids:
# Supematants were collected and IL-8 levels were deternined using ELISA as described previously.
# HL-60 cells = assay: IL-8 ELISA on HL-60 cells; format: cell-based, human; conditions: 1, 6 or 24 hr, S1P or LPA up to 3 μM, TNF-α 10 ng/ml
# Procedure: Procedure for HL-60 Cells:
# Cells: HL-60 (promyelocytic, human) suspension cells
# Media: RPMI 1640 medium with 2 mM L-glutamine adjusted to contain 4.5 g/L glucose, 10 mM HEPES, and 1.0 mM sodium pyruvate+10% FBS
# 1) Cells were plated at a density of 0.25×10^6 cells/ml.
# 2) Cell pellcts were resuspended in 0.5% FBS media at a density of approximately 1×10^6 cells/ml.
# 1) Made up all required solutions in 0.5% FBS media (control).
# 2) 1.4 ml appropriate treatments were added to each well of a 6-well plate.
# 5) 100 μl cell suspension was added to each well.
# 7) After the specified time cell supematants were collected into 1.5 ml eppendorf tubes, spun down at 14000 rpm for 5 minutes and stored at −20° C.
# D. Refer to Procedure #1 For HeLa Cells (D).
# human EDG-4 = human EDG-4 (Homo sapiens, UniProt O95136); assay: SRE luciferase reporter in 293-EBNA cells, human EDG-4; format: cell-based; conditions: for pEC50: 293-EBNA expressing human EDG-4, luciferase after 6 hr, pcDNA3 response subtracted; for Agonist character at EDG-4: conclusion from the reporter assay of Table 2; for Rank (EMax): rank of efficacy among compounds tested
# Procedure: NE-κB activates gene expression by binding to specific DNA sequences found in the promoters of genes regulated by this inflammation-related transcription factor. […] The SRE reporter was identical to the NF-κB reporter, except that the NF-κB binding sites were replaced with 2 SRE sites. The new reporter was called 2XSREtk-p4Luc-zeo.
# The protocol described in Example 11 for Assay 1 was followed except for the following changes:
# 2) SRE Cotransfection: 0.5 μg of 2XSREtk-p4Luc-zeo reporter DNA and 3.5 μg pcDNA3, EDG-1, EDG-3 (pC3-hE3HP2, different from the clone used in Assay 2 of Example 11) or the newly cloned human EDG-4 (pC3-hedg4#36); NF-κB Cotransfection: 2 μg 6XNFκBtk-p4Luc-zeo reporter DNA and 2.0 μg pcDNA3, EDG-1, EDG-3 (pC3-hE3HP2), or EDG-4 (pC3-hedg4#36). Expression plasmid and reporter plasmid DNA samples were combined and diluted in 750 μl of DMEM/F12 (serum free media) and 20 μl Plus Reagent (Lipofectamine Plus Kit, Life Technologies Cat. 10964-013), and incubated at room temperature for 15 min.
# 1) Media was removed and cells treated with compounds diluted in DMEM/F12 media.
# 2) The cells were treated for 6 hours.
# 3) Luciferase assay was performed.
# Transfection was accomplished using the Lipofectamine Plus kit (Life Technologies, Cat. 10964-013), using the manufacturer's recommended conditions.
# (§1) Transfection of EDG-4, expression, pretreatment and treatment of 293-EBNA cells expressing recombinant human EDG-4 was carried out essentially as described in “Example 11. […] Results were tabulated in Microsoft Excel, and analyzed with GraphPad Prism software. […] The luciferase response was expressed as fold response, after subtracting any endogenous response in pcDNA3-transfected cells at a given concentration of compound.
# [3] = test system: 293-EBNA cells expressing recombinant human EDG-4; assay: Cytotoxicity seen in the EDG-4 agonist reporter assay (293-EBNA cells); format: cell-based
# Procedure: as §1
# HeLa cells [4] = assay: Cytotoxicity (viable cell count) in HeLa cells; format: cell-based, human; conditions: 40 μM
# Description: Follow Procedure #2 For HeLa Cells with the following exceptions: […]
# [5] = S1P 1 μM, 30 minute pre-treatment
molecule,measurement,setting,value
"CCCCCCCCCCCCC/C=C/[C@@H](O)[C@@H](N)CO [sphingosine, Sphingosine]",IL-8 production (ligand selectivity),"HeLa cells [1]; 6 hours, 10-5000 nM or 0.3 and 3 μM",lack of response
CCCCCCCCCCCCCC(=O)O[C@@H]1[C@@H](C)[C@@]2(O)[C@@H](C=C(CO)C[C@]3(O)C(=O)C(C)=C[C@@H]23)[C@H]2C(C)(C)[C@]12OC(C)=O [TPA],NF-κB reporter induction (qualitative),rat edg4,strongly induced the NF-κB reporter
CCCCCCCCCCCCCCCCCCOCC(COP(=O)([O-])OCC[N+](C)(C)C)OC (stereo not drawn) [Edelfosine],IL-8 response (qualitative),[2],no response
TNF-α,IL-8 release,HL-60 cells,releasing IL-8
CCCCC/C=C\C/C=C\C/C=C\C/C=C\CCCC(=O)NCCO [anandamide],IL-8 response (qualitative),[2],no response
CC(=O)N[C@@H](CS)C(=O)O [NAC],Inhibition of IL-8 response to S1P by antioxidants,HeLa cells [1]; [5],significantly inhibited
"CCCCCCCCCCCCCCC[C@@H](O)[C@@H](N)COP(=O)(O)O [Dihydro-S1P, dihydrosphingosine 1-phosphate]",pEC50,human EDG-4,6.28
same,Agonist character at EDG-4,human EDG-4,partial agonist
same,Max. Fold,"human EDG-4; fold luciferase response, 6 hr",2.84
same,Rank (EMax),human EDG-4,3
same,EMax (Percent),"human EDG-4; relative efficacy, 6 hr",49.2%
"CCCCCCCCCCCCC/C=C/[C@@H](O)C(N)CO[C@@H]1O[C@H](CO)[C@@H](O)[C@H](O)[C@@H]1O (stereo partly drawn) [Glucospychosine, glucopsychosine]",pEC50,human EDG-4,< 5.00
same,Agonist character at EDG-4,human EDG-4,poor potency and efficacy
same,Rank (EMax),human EDG-4,4
same,Concentration at which cytotoxicity was seen,[3],"^aCytotoxicity was seen at 10 μM or higher concentrations, preventing quantitative determination of EC50 or EMax"
same,Cytotoxicity (qualitative),[3],cytotoxicity at higher concentrations
CCCCCCCCCCCCC/C=C/[C@@H](O)[C@@H](N)CO[C@@H]1O[C@H](CO)[C@H](O)[C@H](O)[C@H]1O [Psychosine],pEC50,human EDG-4,< 5.00
same,Agonist character at EDG-4,human EDG-4,poor potency and efficacy
same,Rank (EMax),human EDG-4,5
same,IL-8 response (qualitative),[2],Marginal increases
same,Cytotoxicity (qualitative),[3]; higher concentrations,cytotoxicity at higher concentrations
Cc1ccc(C(=O)Nc2ccc(S(=O)(=O)O)c3cc(S(=O)(=O)O)cc(S(=O)(=O)O)c23)cc1NC(=O)c1cccc(NC(=O)Nc2cccc(C(=O)Nc3cc(C(=O)Nc4ccc(S(=O)(=O)O)c5cc(S(=O)(=O)O)cc(S(=O)(=O)O)c45)ccc3C)c2)c1 [Suramin],Inhibition of the IL-8 response to edelfosine,HeLa cells [1]; PTX 50 ng/ml or suramin 1 mg/ml,potently inhibited
same,Effect of suramin on IL-8 response to S1P,"HeLa cells [1]; S1P 1 μM, suramin 1 mg/ml, 30 minute pre-treatment",extremely effective in blunting the IL-8 response to S1P
CC(Cc1ccc(O)c(O)c1)C(C)Cc1ccc(O)c(O)c1 (stereo not drawn) [NDGA],Relative potency of antioxidants in inhibiting IL-8 response to S1P,HeLa cells [1]; S1P 1 μM,more potent than the hydrophilic NAC
same,Inhibition of IL-8 response to S1P at 40 μM,"HeLa cells [1]; S1P 1 μM, NDGA 40 μM",completely inhibited the IL-8 response to S1P
same,Inhibition of IL-8 response to S1P by antioxidants,HeLa cells [1]; [5],significantly inhibited
same,Toxicity,HeLa cells [4],some toxicity
